According to patent US10067120B2, “Use of acetylated tubulin as a biomarker of drug response to furazanobenzimidazoles” (Basilea Pharmaceutica AG, priority 2011, dated 2018):

Columns and labels:
Format in all cases: cell-based, human
[1] = test system: H460; test: Crystal Violet proliferation assay, BAL27862-resistant versus parental H460; settings: for Resistance factor (ratio IC50 BAL27862-resistant cell line variant versus IC50 parental cell line): 72 hours, Crystal Violet
Procedure: (§1) BAL27862-resistant sublines of human non-small cell lung cancer (H460 ATCC reference HTB-177; A549 ATCC reference CCL-185), ovarian cancer (SKOV3 ATCC reference HTB-77) and T-cell leukemia (Jurkat ATCC reference TIB-152) cell lines were generated by long-term selection in complete cell culture medium (RPMI-1640 containing 10% FBS; Sigma-Aldrich) by increasing BAL27862 concentrations in a stepwise fashion. […] The resistance factors were determined for the adherent cell lines H460, A549 and SKOV3 by measuring proliferation using the Crystal Violet assay, whereas for the suspension Jurkat cell line cell death was measured using FACS. The resistant sub lines were expanded at the highest tolerated BAL27862 concentration and subsequently frozen and stored in liquid nitrogen.
(§2) A549 (2000 cells/well), H460 (1000 cells/well) and SKOV3 (2000 cells/well) cells were seeded in 96 well plates. […] After medium was removed, cells were fixed and stained by adding 50 μl Crystal Violet stain (0.2% Crystal Violet in 50% Methanol) per well. Plates were incubated for 1 hour at room temperature. Subsequently the stain was decanted and plates were washed 4 times with double-distilled water. Plates were air-dried for several hours. Stain was dissolved by adding 100 μl buffer (0.1 M Tris pH 7.5, 0.2% SDS, 20% Ethanol) per well and shaking the plates. Absorbance at 590 nm was measured using a SpectraMax M2e plate reader (Molecular Devices).
(§3) Antiproliferative IC50 and cell death EC50 values were calculated from concentration response curves using GraphPad Prism software. Resistance factors were calculated as a ratio of the IC50 or EC50 in the resistant line variant versus the IC50 or EC50 in the parental line.

[2] = test system: A549; test: Crystal Violet proliferation assay, BAL27862-resistant versus parental A549; settings: for Resistance factor (ratio IC50 BAL27862-resistant cell line variant versus IC50 parental cell line): 72 hours, Crystal Violet
Procedure: as §1, §2, §3

[3] = test system: A549 NSCLC cells; test: Immunofluorescent staining of microtubules (anti-alpha tubulin); settings: for Microtubule phenotype of mitotic or G2/M arrested cells: 24 hours, 50 nM BAL27862, 80 nM Compound B, 20 nM Compound C
Procedure: (§4) A549 human non-small cell lung cancer (NSCLC, ATCC reference number CCL-185) cells, HeLa cervical cancer cells (ATCC reference number CCL-2) and SKBR3 breast carcinoma cells (ATCC reference number HTB-30) were seeded at densities of 50% on round microscope coverslips and cultured for 24 hours in RPMI-1640 containing 10% FCS (also referred to as FBS) at 37° C., 5% CO2. Compounds to be tested were dissolved in DMSO. The cell culture medium was replaced with medium containing the diluted compound(s) (paclitaxel, vinblastine, colchicine and nocodazole were purchased from Sigma-Aldrich) or vehicle. After treatment for the times indicated in the Brief Description of the Figures, coverslips were washed and cells were fixed in methanol/acetone (1:1) for 5 minutes at room temperature and subsequently incubated in blocking buffer (0.5% BSA and 0.1% TX-100 in PBS) for 30 minutes at room temperature. Specimens were then incubated with anti-alpha tubulin antibody (Sigma, 1:2000) for 1 hour at room temperature in blocking buffer. After several washing steps cells were incubated with AlexaFluor-488 goat-anti-mouse IgG (Molecular Probes, 1:3000) for 1 hour at room temperature followed by several washing steps with blocking buffer. Specimens were then mounted with ProLong Gold antifade (Molecular Probes) sealed with nail polish and examined with a Leica immunofluorescence microscope. Images were captured with a cooled CCD-camera and processed by ImageJ software.

[4] = test system: SKBR3 breast cancer cells; test: as above; settings: 24 hours, 50 nM BAL27862
Procedure: as §4

[5] = test system: HeLa cervical cancer cells; test: as above; settings: 24 hours, 50 nM BAL27862
Procedure: as §4

[6] = test system: SKOV3; test: Crystal Violet proliferation assay, BAL27862-resistant versus parental SKOV3; settings: for Resistance factor (ratio IC50 BAL27862-resistant cell line variant versus IC50 parental cell line): 72 hours, Crystal Violet
Procedure: as §1, §2, §3

[7] = test system: Jurkat; test: FACS cell death assay, BAL27862-resistant versus parental Jurkat cells expressing GFP
Procedure: as §1, with “The resistant sub lines were expanded at the highest tolerated BAL27862 concentration and subsequently frozen and stored in liquid nitrogen.” left out
Jurkat cells stably expressing GFP (green fluorescence protein) were incubated with increasing BAL27862 concentrations in culture medium for 72 hours and then analyzed by FACS (excitation at 488 nm, emission at 525 nm). Dying or dead cells, showing a decreased fluorescence activity in comparison to living cells, were quantified (Green fluorescent protein as a novel tool to measure apoptosis and necrosis. Strebel et al, 2001, Cytometry 43(2): 126-133).
as §3

[8] = test system: BAL27862-resistant cells; test: Response of BAL27862-resistant lines to other microtubule agents (all lines tested); settings: all lines tested (Table 1)
Procedure: as §1
A549 (2000 cells/well), H460 (1000 cells/well) and SKOV3 (2000 cells/well) cells were seeded in 96 well plates. […] After medium was removed, cells were fixed and stained by adding 50 μl Crystal Violet stain (0.2% Crystal Violet in 50% Methanol) per well. […] Absorbance at 590 nm was measured using a SpectraMax M2e plate reader (Molecular Devices).
as §3

SMILES | Resistance factor (ratio IC50 BAL27862-resistant cell line variant versus IC50 parental cell line) [1] | Resistance factor (ratio IC50 BAL27862-resistant cell line variant versus IC50 parental cell line) [2] | Microtubule phenotype of mitotic or G2/M arrested cells [3] | Resistance factor (ratio IC50 BAL27862-resistant cell line variant versus IC50 parental cell line) ([6]; SKOV3 resistant 1) | Resistance factor (ratio IC50 BAL27862-resistant cell line variant versus IC50 parental cell line) ([6]; SKOV3 resistant 2) | other results
N#CCCNc1nonc1-c1nc2ccccc2n1CC(=O)c1ccc(N)cc1 [BAL27862, 3-(4-{1-[2-(4-Amino-phenyl)-2-oxo-ethyl]-1H-benzoimidazol-2-yl}-furazan-3-ylamino)-propionitrile] | 5.3 | 3.0 | dot-like structures | 7.6 | 11.6 | Resistance factor versus parental line (based on IC50) [1]: 5.3 fold; Resistance factor versus parental line (based on IC50) [2]: 3.0 fold; Microtubule phenotype on combination treatment ([3]; 24 hours vinblastine, colchicine, paclitaxel or nocodazole, BAL27862 added for the last 4 hours): disruption of the microtubule structures; Microtubule phenotype of mitotic or G2/M arrested cells [4]: dot-like structures; Microtubule phenotype of mitotic or G2/M arrested cells [5]: dot-like structures; Resistance factor versus parental line (based on IC50) ([6]; SKOV3 resistant 1): 7.6 fold; Resistance factor versus parental line (based on IC50) ([6]; SKOV3 resistant 2): 11.6 fold; Resistance factor versus parental line (based on EC50) [7]: 22.5 fold; Resistance factor (ratio EC50 BAL27862-resistant cell line variant versus EC50 parental cell line) ([7]; 72 hours, cell death by FACS): 22.5
COc1cc2c(c(OC)c1OC)-c1ccc(OC)c(=O)cc1[C@@H](NC(C)=O)CC2 [Colchicine, colchicine] | 1.6 | 0.9 | – | 2.0 | 2.8 | –
Nc1ccc(C(=O)Cn2c(-c3nonc3N)nc3ccccc32)cc1 [Compound B, 2-[2-(4-Amino-furazan-3-yl)-benzoimidazol-1-yl]-1-(4-amino-phenyl)-ethanone] | – | – | dot-like structures | – | – | –
N#CCCNc1nonc1-c1nc2ccccc2n1CC(=O)c1ccc(N)nc1 [Compound C, 3-(4-{1-[2-(6-Amino-pyridin-3-yl)-2-oxo-ethyl]-1H-benzoimidazol-2-yl}-furazan-3-ylamino)-propionitrile] | – | – | dot-like structures | – | – | –
COC(=O)Nc1nc2ccc(C(=O)c3cccs3)cc2[nH]1 [Nocodazole, nocodazole] | 1.3 | 1.6 | – | 3.6 | 3.9 | –
CC(=O)O[C@H]1C(=O)[C@@]2(C)[C@H]([C@H](OC(=O)c3ccccc3)[C@]3(O)C[C@H](OC(=O)[C@H](O)[C@@H](NC(=O)c4ccccc4)c4ccccc4)C(C)=C1C3(C)C)[C@]1(OC(C)=O)CO[C@@H]1C[C@@H]2O [Paclitaxel, paclitaxel] | 0.3 | 0.06 | – | 0.4 | 0.5 | Sensitivity of BAL27862-resistant lines compared to parental lines [8]: increased sensitivity
CC[C@]1(O)C[C@@H]2CN(CCc3c([nH]c4ccccc34)[C@@](C(=O)OC)(c3cc4c(cc3OC)N(C)[C@H]3[C@@](O)(C(=O)OC)[C@H](OC(C)=O)[C@]5(CC)C=CCN6CC[C@]43[C@@H]65)C2)C1 [Vinblastine, vinblastine] | 4.6 | 2.3 | – | 15.7 | – | –
